Where two headings read alike, the source gives them in different places.
Legend:
[1] = test system: HCV replicon (HCV type 1b) in Huh-7 luc/neo cells; test: Stable replicon cell reporter assay (Huh-Luc, luciferase readout); format: cell-based; conditions: Hepatitis C virus, Huh-7, 72 h, three days incubation, luciferase activity
Source text: Stable Replicon Cell Reporter Assays:
The compounds of the present invention are examined for activity in the inhibition of HCV RNA replication in a cellular assay. […] The cellular assay is based on a bicistronic expression construct, as described by Lohmann et al. (1999) Science vol. 285 pp. 110-113 with modifications described by Krieger et al. (2001) Journal of Virology 75: 4614-4624, in a multi-target screening strategy. In essence, the method is as follows.
The assay utilizes the stably transfected cell line Huh-7 luc/neo (hereafter referred to as Huh-Luc). This cell line harbors an RNA encoding a bicistronic expression construct comprising the wild type NS3-NS5B regions of HCV type 1b translated from an Internal Ribosome Entry Site (IRES) from encephalomyocarditis virus (EMCV), preceded by a reporter portion (FfL-luciferase), and a selectable marker portion (neo^R, neomycine phosphotransferase). The construct is bordered by 5′ and 3′ NTRs (non-translated regions) from HCV type 1b. Continued culture of the replicon cells in the presence of G418 (neo^R) is dependent on the replication of the HCV RNA. The stably transfected replicon cells that express HCV RNA, which replicates autonomously and to high levels, encoding inter alia luciferase, are used for screening the antiviral compounds.
Cellular Assay Experimental Method:
The replicon cells are plated in 384 well plates in the presence of the test and control compounds which are added in various concentrations. Following an incubation of three days, HCV replication is measured by assaying luciferase activity (using standard luciferase assay substrates and reagents and a Perkin Elmer ViewLux™ ultraHTS microplate imager). Replicon cells in the control cultures have high luciferase expression in the absence of any inhibitor. The inhibitory activity of the compound on luciferase activity is monitored on the Huh-Luc cells, enabling a dose-response curve for each test compound.

[2] = Pharmacokinetic profile after single oral administration: plasma, heart and liver levels; format: in vivo, male Swiss SPF (CD1)-mice
Experimental: Compound nr. 21 was dissolved in a 10% hydroxypropyl-β-cyclodextrin (HP-β-CD) solution at a final concentration of 1 mg base-eq./ml, .pH 4.36.
Three animals were administered orally the solution of compound nr. 21 to obtain a dose of 20 mg base-eq./kg. Blood samples were taken at 30 min, 1, 2, 4, 8 and 24 h after oral dose administration. Plasma was obtained following centrifugation at 4° C. for 10 minutes at approximately 1900×g.
From each orally dosed animal individual samples of heart and liver were dissected and weighed. Tissue samples were homogenized in demineralized water.
Plasma and tissue samples were analysed for compound nr. 21, using a qualified research LC-MS/MS method.
A limited pharmacokinetic analysis was performed using WinNonlin™ Professional (Version 4.0.1). A non-compartmental analysis using the lin/log trapezoidal rule with lin/log interpolation was used for all data. The variability between animals is indicated by the standard deviation (st dev).

Fc1ccc(Br)cc1-c1nc(Nc2ccc(N3CCOCC3)cc2)c2nccnc2n1 [Compound 14, 2-(5-bromo-2-fluorophenyl)-4-(4-morpholinophenylamino)pteridine]
EC50 [1]: 8700 nM

Fc1ccc(Br)cc1-c1nc(N2CCN(c3ccccn3)CC2)c2nccnc2n1 [Compound 12, 2-(5-bromo-2-fluorophenyl)-4-[4-(2-pyridyl)piperazin-1-yl]pteridine]
EC50 [1]: > 32000 nM

CN(c1ccccc1)c1nc(-c2cc(Br)ccc2F)nc2nccnc12 [Compound 10, 2-(5-bromo-2-fluorophenyl)-4-[(methyl)(phenyl)amino]pteridine]
EC50 [1]: 11000 nM

CC(C)(C)CCN(c1ccncc1)c1nc(-c2cc(Br)ccc2F)nc2nccnc12 [Compound 4, 2-(5-bromo-2-fluorophenyl)-4-[(3,3-dimethylbutyl)(4-pyridyl)amino]pteridine]
EC50 [1]: 480 nM

Fc1ccc(Br)cc1-c1nc(N(Cc2ccccc2)c2ccncc2)c2nccnc2n1 [Compound 5, 4-[(benzyl)(4-pyridyl)amino]-2-(5-bromo-2-fluorophenyl)pteridine]
EC50 [1]: 990 nM

Cc1cnccc1Nc1nc(-c2cc(Cl)ccc2F)nc2nccnc12 [Compound 25, 2-(5-chloro-2-fluorophenyl)-4-(3-methyl-4-pyridylamino)pteridine]
EC50 [1]: 480 nM

Fc1cccc(-c2nc(Nc3ccncc3)c3nccnc3n2)c1 [Compound 27, 2-(3-fluorophenyl)-4-(4-pyridylamino)pteridine]
EC50 [1]: 3000 nM

Cc1ccccc1Nc1nc(-c2cc(Br)ccc2F)nc2nccnc12 [Compound 9, 2-(5-bromo-2-fluorophenyl)-4-(2-tolylamino)pteridine]
EC50 [1]: 11000 nM

Fc1ccc(Br)cc1-c1nc(Nc2ccncc2)c2nccnc2n1 [Compound 1, 2-(5-bromo-2-fluorophenyl)-4-(4-pyridylamino)pteridine]
EC50 [1]: 352 nM

COC(=O)c1cnccc1Nc1nc(-c2cc(Br)ccc2F)nc2nccnc12 [Compound 13, 4-[[2-(5-Bromo-2-fluorophenyl)pteridin-4-yl]amino]nicotinic acid methyl ester]
EC50 [1]: 4900 nM

Cc1cccc(-c2nc(Nc3ccncc3C)c3nccnc3n2)n1 [Compound 19, 2-(2-methyl-6-pyridyl)-4-[(3-methyl-4-pyridyl)amino]pteridine]
EC50 [1]: 12000 nM

Cc1cnccc1Nc1nc(-c2cc(Br)ccc2N2CCCC2)nc2nccnc12 [Compound 6, 2-(5-Bromo-2-pyrrolidin-1-ylphenyl)-4-(3-methyl-4-pyridylamino)pteridine]
EC50 [1]: 18000 nM

CN(c1ccncc1)c1nc(-c2cc(Br)ccc2F)nc2nccnc12 [Compound 2, 2-(5-bromo-2-fluorophenyl)-4-[(methyl)(4-pyridyl)amino]pteridine]
EC50 [1]: 3650 nM

Cc1cc(Nc2nc(-c3cc(Br)ccc3F)nc3nccnc23)ccn1 [Compound 15, 2-(5-bromo-2-fluorophenyl)-4-(2-methyl-4-pyridylamino)pteridine]
EC50 [1]: 3560 nM

Fc1ccc(Br)cc1-c1nc(N(CCc2ccccc2)c2ccncc2)c2nccnc2n1 [Compound 22, 2-(5-bromo-2-fluorophenyl)-4-[(phenethyl)(4-pyridyl)amino]-pteridine]
EC50 [1]: 1960 nM

OCCNc1nc(-c2cc(Br)ccc2F)nc2nccnc12 [Compound 11, 2-(5-bromo-2-fluorophenyl)-4-(2-hydroxyethylamino)pteridine]
EC50 [1]: > 32000 nM

CCCCN(c1ccncc1)c1nc(-c2cc(Br)ccc2F)nc2nccnc12 [Compound 3, 4-[(butyl)(4-pyridyl)amino]-2-(5-bromo-2-fluorophenyl)pteridine]
EC50 [1]: 2200 nM

Cc1cnccc1Nc1nc(-c2cc(Br)ccc2F)nc2nccnc12 [Compound 7, 2-(5-bromo-2-fluorophenyl)-4-(3-methyl-4-pyridylamino)pteridine]
EC50 [1]: 950 nM

CCc1cnccc1Nc1nc(-c2cc(Cl)ccc2F)nc2nccnc12 [Compound 23, 2-(5-chloro-2-fluorophenyl)-4-(3-ethyl-4-pyridylamino)pteridine]
EC50 [1]: 520 nM

Fc1ccc(Cl)cc1-c1nc(Nc2ccncc2)c2nccnc2n1 [Compound 24, 2-(5-chloro-2-fluorophenyl)-4-(4-pyridylamino)pteridine]
EC50 [1]: 780 nM

Clc1cccc(-c2nc(Nc3ccncc3)c3nccnc3n2)c1 [Compound 18, 2-(3-chlorophenyl)-4-(4-pyridylamino)pteridine]
EC50 [1]: 1500 nM

FC(F)(F)c1cccc(-c2nc(Nc3ccncc3)c3nccnc3n2)c1 [Compound 26, 2-(3-trifluoromethylphenyl)-4-(4-pyridylamino)pteridine]
EC50 [1]: 2000 nM

Fc1ccc(Br)cc1-c1nc(Nc2ccccc2)c2nccnc2n1 [Compound 8, 2-(5-bromo-2-fluorophenyl)-4-(phenylamino)pteridine]
EC50 [1]: > 32000 nM

O=C(NCCCN1CCCC1=O)c1cnccc1Nc1nc(-c2cc(Br)ccc2F)nc2nccnc12 [Compound 21, 4-[[2-(5-bromo-2-fluorophenyl)pteridin-4-yl]amino]-N-[3-(2-oxopyrrolidin-1-yl)propyl]nicotinamide]
EC50 [1]: 58 nM | AUC0-inf ([2]; heart, 20 mg base-eq./kg oral): 1262 ng·h/mL | AUC(0-8 h) ([2]; heart, 20 mg base-eq./kg oral): 1119 ng·h/mL | Tmax ([2]; heart, 20 mg base-eq./kg oral): 30 min | t1/2 (2-8 h) ([2]; heart, 20 mg base-eq./kg oral): 3.4 h | Cmax ([2]; heart, 20 mg base-eq./kg oral (Table 4)): 678 ng/mL | Mean tissue level, heart ([2]; heart, time 24 h, 20 mg base-eq./kg oral, n=3, LLOQ between 5.00 and 13.16 ng/g): BQL^1) | AUC0-inf ([2]; liver, 20 mg base-eq./kg oral): 7973 ng·h/mL | AUC(0-8 h) ([2]; liver, 20 mg base-eq./kg oral): 6965 ng·h/mL | Tmax ([2]; liver, 20 mg base-eq./kg oral): 30 min | t1/2 (2-8 h) ([2]; liver, 20 mg base-eq./kg oral): 3.5 h | Cmax ([2]; liver, 20 mg base-eq./kg oral (Table 4)): 4057 ng/mL | Mean tissue level, liver ([2]; liver, time 24 h, 20 mg base-eq./kg oral, n=3, LLOQ between 5.00 and 13.16 ng/g): BQL^1) | Cmax ([2]; male, Swiss SPF (CD1), mouse, 20 mg/kg, heart, 0.5 h post dose, 20 mg base-eq./kg oral, read-out: Mean maximum tissue concentration (Cmax)): 678 ng/g | Cmax ([2]; male, Swiss SPF (CD1), mouse, 20 mg/kg, liver, 0.5 h post dose, 20 mg base-eq./kg oral, read-out: Mean maximum tissue concentration (Cmax)): 4060 ng/g | concentration at 0.5 h ([2]; male, Swiss SPF (CD1), mouse, plasma, time 0.5 h, 20 mg base-eq./kg oral, n=3, read-out: Mean plasma level): 220 ng/mL | concentration at 1 h ([2]; male, Swiss SPF (CD1), mouse, plasma, time 1 h, 20 mg base-eq./kg oral, n=3, read-out: Mean plasma level): 166 ng/mL | concentration at 2 h ([2]; male, Swiss SPF (CD1), mouse, plasma, time 2 h, 20 mg base-eq./kg oral, n=3, read-out: Mean plasma level): 21.7 ng/mL | concentration at 4 h ([2]; male, Swiss SPF (CD1), mouse, plasma, time 4 h, 20 mg base-eq./kg oral, n=3, read-out: Mean plasma level): 20.3 ng/mL | concentration at 8 h ([2]; male, Swiss SPF (CD1), mouse, plasma, time 8 h, 20 mg base-eq./kg oral, n=3, read-out: Mean plasma level): 5.52 ng/mL | AUC0-inf ([2]; plasma, 20 mg base-eq./kg oral): 332 ng·h/mL | AUC(0-8 h) ([2]; plasma, 20 mg base-eq./kg oral): 309 ng·h/mL | Cmax ([2]; plasma, 20 mg base-eq./kg oral): 220 ng/mL | Tmax ([2]; plasma, 20 mg base-eq./kg oral): 30 min | t1/2 (2-8 h) ([2]; plasma, 20 mg base-eq./kg oral): 2.9 h | Mean plasma level ([2]; plasma, time 24 h, 20 mg base-eq./kg oral, n=3, LLOQ 0.500 ng/ml): BQL^1)
